Measurements from US10772893B2, “2-(morpholin-4-yl)-1,7-naphthyridines” (BAYER PHARMA AKTIENGESELLSCHAFT, priority 2014, dated 2020).
Where a name gives a salt, the structure may show the parent alone.

Legend:
Test in all cases: Proliferation assay, crystal violet staining
[1] = test system: DU145 cells; details: Homo sapiens, DU-145, 96 h, read-out: Inhibition of DU145 cell proliferation, DU145 cells, 4 days incubation
[2] = test system: HeLa-MaTu-ADR cells; type: cell-based; details: Homo sapiens, 96 h, 4 days incubation, read-out: Inhibition of HeLa-MaTu-ADR cell proliferation
Method: (§1) After 24 hours, the cells of one plate (zero plate) were dyed with crystal violet (see below), whereas the medium of the other plates was replaced with fresh culture medium (200 μl) to which the test substances were added in various concentrations (0 μM, and also in the range of 0.001-10 μM; the final concentration of the solvent dimethyl sulphoxide was 0.1 or 0.5%). The cells were incubated for 4 days in the presence of the test substances. […] After washing the fixed cells three times with water, the plates were dried at room temperature. The cells were stained by adding 100 μl/measurement point of a 0.1% strength crystal violet solution (pH adjusted to pH 3 by adding acetic acid). After washing the cells three times with water, the plates were dried at room temperature. The dye was dissolved by adding 100 μl/measurement point of a 10% strength acetic acid solution. […] The percentage change in cell growth was calculated by normalizing the measured values to the absorbance values of the zero plate (=0%) and the absorbance of the untreated (0 W) cells (=100%). The IC50 values were determined by means of a four parameter fit.

[3] = test system: NCI-H460 cells; details: Homo sapiens, NCI-H460, 96 h, read-out: Inhibition of NCI-H460 cell proliferation, NCI-H460 cells, 4 days incubation
Method: as §1

[4] = test system: Caco-2 cells; type: cell-based; details: Homo sapiens, Caco-2, 96 h, 4 days incubation, read-out: Inhibition of Caco-2 cell proliferation
Method: as §1

[5] = test system: HeLa cells; details: Homo sapiens, 96 h, read-out: Inhibition of HeLa cell proliferation, HeLa cells, 4 days incubation

SMILES	IC50 [1]	IC50 [2]	IC50 [3]	IC50 [4]	IC50 [5]
CS(=O)(=O)c1ccc(-c2cc(N3CCOCC3)nc3c(-c4cc[nH]n4)nccc23)cc1 [Example 7, 4-(4-methanesulphonylphenyl)-2-(morpholin-4-yl)-8-(1H-pyrazol-3-yl)-[1,7]naphthyridine]	1.59 µM		1.02 µM	5.95 µM	1.33 µM
CS(=O)(=O)c1ccccc1-c1cc(N2CCOCC2)nc2c(-c3cc[nH]n3)nccc12 [Example 8, 4-(2-methanesulphonylphenyl)-2-(morpholin-4-yl)-8-(1H-pyrazol-3-yl)-[1,7]naphthyridine Hydrochloride]	2.05 µM	> 3 µM	0.909 µM	> 3 µM	2.26 µM
C=C(C)c1cc(N2CCOCC2)nc2c(-c3cc[nH]n3)nccc12 [Example 10, 4-Isopropenyl-2-(morpholin-4-yl)-8-(1H-pyrazol-3-yl)-[1,7]naphthyridine]	0.827 µM	1.3 µM	0.447 µM	1.46 µM	0.496 µM
CS(=O)(=O)c1ccc(-c2cc(N3CCOCC3)nc3c(-c4ccn[nH]4)nccc23)c(F)c1 [Example 24]	1.35 µM	3.41 µM	0.378 µM	0.833 µM	
C[C@@H]1COCCN1c1cc(-c2ccc(S(C)(=O)=O)cc2)c2ccnc(-c3cc[nH]n3)c2n1 [Example 26, 4-(4-methanesulphonylphenyl)-2-((R)-3-methylmorpholin-4-yl)-8-(2H-pyrazol-3-yl)-[1,7]naphthyridine]	0.725 µM	> 1 µM	0.586 µM	> 1 µM	0.296 µM
C[C@@H]1COCCN1c1cc(N2CCNCC2)c2ccnc(-c3ccn[nH]3)c2n1 [Example 66, 2-[(3R)-3-methylmorpholin-4-yl]-4-(piperazin-1-yl)-8-(1H-pyrazol-5-yl)-1,7-naphthyridine]			0.127 µM	3.35 µM	

Second part, the compound after the results:

IC50 [1]	IC50 [2]	IC50 [3]	IC50 [4]	IC50 [5]	SMILES
0.368 µM	> 3 µM	0.641 µM	2.19 µM		CN=S(C)(=O)c1ccc(-c2cc(N3CCOCC3)nc3c(-c4ccn[nH]4)nccc23)cc1 (stereo not shown) [Example 5, 4-(4-(N,S-dimethylsulfonimidoyl)phenyl)-2-[morpholin-4-yl]-8-(1H-pyrazol-5-yl)-1,7-naphthyridine]
0.817 µM	> 3 µM	0.528 µM	1.72 µM	1.41 µM	CS(=O)(=O)c1cccc(-c2cc(N3CCOCC3)nc3c(-c4cc[nH]n4)nccc23)c1 [Example 15, 4-(3-methanesulphonylphenyl)-2-(morpholin-4-yl)-8-(1H-pyrazol-3-yl)-[1,7]naphthyridine]
1.01 µM	> 3 µM	0.269 µM	0.653 µM		C[C@@H]1COCCN1c1cc(S(C)(=O)=O)c2ccnc(-c3ccn[nH]3)c2n1 [Example 33, 2-[(3R)-3-methylmorpholin-4-yl]-4-(methylsulfonyl)-8-(1H-pyrazol-5-yl)-1,7-naphthyridine]
0.915 µM	1.53 µM	0.308 µM	1.54 µM		CSc1cc(N2CCOC[C@H]2C)nc2c(-c3ccn[nH]3)nccc12 [Example 63, 2-[(3R)-3-methylmorpholin-4-yl]-4-(methylsulfanyl)-8-(1H-pyrazol-5-yl)-1,7-naphthyridine]
0.506 µM	1.17 µM	0.0923 µM	0.844 µM		C[C@@H]1COCCN1c1cc(N=S2(=O)CCOCC2)c2ccnc(-c3ccn[nH]3)c2n1 [Example 64, N-{2-[(3R)-3-methylmorpholin-4-yl]-8-(1H-pyrazol-5-yl)-1,7-naphthyridin-4-yl}-1,4λ^4-oxathian-4-imine 4-oxide]
	> 3 µM		> 3 µM	0.731 µM	c1cc(-c2nccc3c(N4CCn5ccnc5C4)cc(N4CCOCC4)nc23)[nH]n1 [Example 169, 4-(5,6-dihydroimidazo[1,2-a]pyrazin-7(8H)-yl)-2-(morpholin-4-yl)-8-(1H-pyrazol-5-yl)-1,7-naphthyridine]
